Results reported in patent US10730857B2, “Benzocyanine compounds” (Pierce Biotechnology, Inc., priority 2011, dated 2020).

Columns and labels:
[1] = Absorbance/emission spectral properties and fluorescence intensity of the dyes; type: physicochemical; conditions: 10 μg/ml in PBS buffer pH 7.2, FIG. 1
Method: Emission/excitation profiles for inventive and commercial compounds was determined by reconstituting the compounds in DMF at 10 mg/ml and then diluting in PBS buffer pH 7.2 to 10 μg/ml.

streptavidin (SA) = streptavidin (SA) (Streptomyces avidinii, UniProt P22629); experiment: Labeling efficiency (degree of labeling) of streptavidin
Sequence of streptavidin (SA) (P22629 25-183, species assumed): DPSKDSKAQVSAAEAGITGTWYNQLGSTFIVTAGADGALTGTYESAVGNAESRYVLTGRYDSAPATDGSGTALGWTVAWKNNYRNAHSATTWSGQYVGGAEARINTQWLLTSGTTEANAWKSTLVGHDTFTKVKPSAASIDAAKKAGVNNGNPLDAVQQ
Method: Inventive and commercial compounds, each as the NHS ester, were conjugated to goat anti-mouse (GAM) antibodies, goat anti-rabbit (GAR) antibodies, and streptavidin (SA). GAM, GAR, and SA, at a concentration of 10 mg/ml in phosphate buffered saline (PBS), were dialyzed against 50 mM borate buffer, pH 8.5. […]
The labeled compounds, also termed dyes or labels, were subjected to Pierce Dye Removal Resin (PDDR) to remove the unlabeled (free) compound; 100 μl of the packed resin was used per mg of protein purified. The purified antibody-labeled dyes were then diluted 1:50 in PBS and scanned for absorbance from 700 nm to 230 nm to determine the protein concentration, and to determine the mole dye to mole protein ratio. Each conjugate was diluted 1:10 in 50% glycerol and heated in the presence of 10 mM dithiothreitol (DTT) for 5 min at 95° C., then separated by electrophoresis on polyacrylamide gels in the presence of sodium dodecyl sulfate (SDS-PAGE). The gels were scanned using the Typhoon 9400 Imager to verify removal of the unconjugated compound. Labeling efficiency was compared, with results showing degree of labeling below.

lamin A in A549 cells = experiment: Immunofluorescence, mouse anti-lamin A, A549 cells (FIG. 15); type: cell-based; conditions: GAM conjugates at 4× to 12× molar excess
Method: The inventive compounds were evaluated for immunofluorescence in cell based assays using the following protocol. Frozen A549 cell plates stored at −20° C. were placed for 30 min 50° C. Storage buffer (PBS) was removed and the cells were permeabilized for 15 min (100 μl/well) with 0.1% Triton-X100 in 1×PBS buffer. Plates were blocked for 30 min in 2% BSA in 1×PBS-0.1% Trion-X100. Primary antibodies diluted in 2% BSA in 1×PBS-0.1% Trion-X100 were added to the plates (column 1-11; column 12 included only blocker) and incubated […]. Mouse anti-lamin A was added at 1 μg/ml and rabbit anti-lamin B1 was added at 3 μg/ml. After overnight incubation, the antibody solution was removed from the plates and the plates were washed with PBS-0.5% Tween-20 (2×100 μl/well). GAM and GAR secondary antibodies labeled with DyLight 680-NHS, DyLight 680B-NHS, 679 Compound 1-NHS and Company B Compound-NHS were diluted to 4 μg/ml in PBS, added and incubated for one hour at room temperature. The plates were then washed three times with 100 μl/well PBS, and Hoechst stain diluted to 0.1 μg/ml in PBS was added to each well (100 μl/well). The plates were scanned on ArrayScan Plate Reader for imaging and quantitation.

lamin A in U20S cells = experiment: Immunofluorescence, mouse anti-lamin A, U20S cells (FIG. 16); type: cell-based
Method: (§1) The inventive compounds and commercial dye were evaluated for immunofluorescence in a second cell based assay using the following protocol. Frozen U20S cell plates stored at −20° C. were placed overnight at 4° C. Storage buffer (PBS) was removed and the cells were permeabilized for 15 min (100 μl/well) with 0.1% Triton-X100 in 1×PBS buffer. Plates were blocked for 30 min in 2% BSA in 1×PBS-0.1% Trion-X100. Primary antibodies diluted in 2% BSA in 1×PBS-0.1% Trion-X100 were added to the plates (column 1-11; column 12 included only blocker) and incubated five hours at room temperature. Mouse anti-lamin A was added at 2 μg/ml and rabbit anti-lamin B1 was added at 4 μg/ml. After incubation, the antibody solution was removed from the plates and the plates were washed PBS-0.5% Tween-20 (2×100 μl/well). Next, GAM and GAR secondary antibodies labeled with DyLight 680-NHS, DyLight 680B-NHS, 679 Compound 1-NHS, and Cy5.5 Mono Ester were diluted to 4 μg/ml in PBS and incubated with the cells for one hour at room temperature. GAM and GAR conjugated to DyLight 680-NHS, DyLight 680B-NHS, 679 Compound 1-NHS, and Company B Compound at 10× molar excess were diluted to 4 μg/ml in PBS and then serially diluted 1:1 in the plate to the following concentrations: 2 μg/ml, 1 μg/ml, 0.5 μg/ml, 0.25 μg/ml, 0.125 μg/ml and/or 0.0625 μg/ml. The plates were washed 3× with 100 μl/well PBS, and Hoechst stain diluted to 0.1 μg/ml in PBS was added to each well (100 μl/well). The plates were scanned on ArrayScan Plate Reader for imaging and quantitation.

lamin B1 in U20S cells = experiment: Immunofluorescence, rabbit anti-lamin B1, U20S cells, GAR conjugates; type: cell-based
Method: as §1, with “GAM and GAR conjugated to DyLight 680-NHS, DyLight 680B-NHS, 679 Compound 1-NHS, and Company B Compound at 10× molar excess were diluted to 4 μg/ml in PBS and then serially diluted 1:1 in the plate to the following concentrations: 2 μg/ml, 1 μg/ml, 0.5 μg/ml, 0.25 μg/ml, 0.125 μg/ml and/or 0.0625 μg/ml. The plates were washed 3× with 100 μl/well PBS, and Hoechst stain diluted to 0.1 μg/ml in PBS was added to each well (100 μl/well).” left out

Structure (SMILES): COCC[N+]1=C(/C=C/C=C/C=C2/N(CCCCCC(=O)O)c3ccc4c(S(=O)(=O)[O-])cc(S(=O)(=O)[O-])cc4c3C2(C)C)C(C)(CCCS(=O)(=O)[O-])c2c1ccc1c(S(=O)(=O)[O-])cc(S(=O)(=O)[O-])cc21.[Na+].[Na+].[Na+].[Na+] (centres unmarked) [679 Compound 1, 6-((E)-2-((2E,4E)-5-(3-(2-methoxyethyl)-1-methyl-6,8-disulfonato-1-(3-sulfonatopropyl)-1H-benzo[e]indol-3-ium-2-yl)penta-2,4-dien-1-ylidene)-1,1-dimethyl-6,8-disulfonato-1H-benzo[e]indol-3(2H)-yl)hexanoate]
- Max Abs ([1]; Cary UV spectrophotometer): 679 nm
- Max E ([1]; emission, Tecan Safire): 704 nm
- degree of labeling (streptavidin (SA); SA-6X molar excess): 4.0
- degree of labeling (streptavidin (SA); SA-8X molar excess): 5.0
- performance in immunofluorescence (in words) (lamin A in A549 cells): very similar performance to corresponding DyLight 680B conjugates
- Mean Total Intensity 2X (lamin A in U20S cells; GAM conjugated at 2X molar excess, FIG. 16): 232482
- Mean Total Intensity 3X (lamin A in U20S cells; GAM conjugated at 3X molar excess, FIG. 16): 263580
- Mean Total Intensity 4X (lamin A in U20S cells; GAM conjugated at 4X molar excess, FIG. 16): 330865
- S/B (in words) (lamin A in U20S cells; GAM conjugates at the low molar excesses): comparable to each other and to DyLight 680
- Overall fluorescence signal intensity (in words) (lamin B1 in U20S cells; GAR conjugates): about two times higher compared to DyLight 680
- S/B (in words) (lamin B1 in U20S cells; GAR labeled at 2×, 3× or 4× molar excess): comparable to each other and to DyLight 680 conjugates
